Source: patent US20240368120A1 (Terns Pharmaceuticals, Inc., priority 2023, published 2024)
Like-named read-outs stand apart in the source and are kept apart here.

Legend:
[1] = Metabolic stability in rat hepatocytes; format: in vitro ADME; settings: cryopreserved hepatocytes, 1 μM, 1×10^6 cells/mL, 0-240 min; for half-life at 1 μM: read-out: Rat t1/2
Experimental: (§1) Test compounds were incubated in rat and human hepatocytes and stability was assessed from the substrate […] approach. Test compounds were dissolved in dimethyl sulfoxide (DMSO) to create a 10 mM Stock, and then further diluted to create a 1000× Working Stock of 1 mM with DMSO in 96-well plates for test compounds and the positive control (midazolam). Vials containing cryopreserved hepatocytes were removed from the liquid nitrogen tank and immediately immersed in a 37° C. water bath. The vials were shaken gently until the contents had thawed and were then immediately emptied into 48 mL of pre-warmed HT Medium in a 50 mL conical tube. Cells remaining in the vial were resuspended with 1.0 mL of pre-warmed HT Medium and added to the conical tube. The tube was capped and then gently inverted several times to resuspend the hepatocytes. The cell suspension was centrifuged at 50×g at room temperature for 5 minutes and the supernatant discarded. The cell pellet was loosened by gently swirling the centrifuge tube and was re-suspended in 4 mL of warm Dulbecco's Modified Eagle medium (DMEM). Cell density was determined by a cell counter by Nexcelom, and DMEM medium was added to obtain a target density of 1×10^6 cells/mL. The assay was carried out in 96-well microtiter plates. Test Compounds were incubated at 1 μM with 1×10^6 cells/mL hepatocytes in DMEM for 0, 30, 60, 120 and 240 minutes. The incubation was carried out with gentle shaking at 37° C. under a humid atmosphere of 95% air/5% CO2. The volume of the incubation mixture was 37 μL with a final 0.1% DMSO. At each of the time points, the incubation was stopped by adding 150 μL quenching solution (100% acetonitrile, 0.1% formic acid containing bucetin as an internal standard for positive ESI mode). Subsequently, the mixtures were vortexed for 20 min and centrifuged at 4,000 RPM at 10° C. The supernatant (80 μL) was transferred to a clean 96-well plate and analyzed by LC-MS/MS. Midazolam at 1 μM with a final 0.1% DMSO was included as a positive control to verify assay performance. The percent parent remaining, intrinsic and predicted hepatic clearance and t1/2 were calculated. All samples were analyzed by LC-MS/MS using an AB Sciex API 4000 instrument, coupled to a Shimadzu LC-20AD LC Pump system. Separation was achieved using a Waters Atlantis T3 dC18 reverse phase HPLC column (20 mm×2.1 mm) at a flow rate of 0.5 mL/min. The mobile phase consisted of 0.1% formic acid in water (solvent A) and 0.1% formic acid in 100% acetonitrile (solvent B). Elution conditions are detailed below.
(§2) The ion optics of each test compound were optimized for their declustering potential (DP), […] (CE), collision-cell exit potential (CXP) and used in a selected ion monitoring experiment in the positive ion mode. The peak area ratio of each test compound to internal standard was then evaluated for stability. The extent of metabolism was calculated based on the disappearance of the test compound, compared to its initial concentration. The initial rates of clearance of the test compound were calculated using the linear regression plot of semi-log % remaining of the compound versus time. The elimination rate constant (k) of the linear regression plot was then used to determine t1/2 and the intrinsic clearance (CLint) using the following formula, where Chepatocyte (million cells/mL) is the cell density of the incubation:
(§3) The predicted hepatic clearance (CLhep) was calculated using the well stirred method with the following formula with CLint (in vivo) normalized based on liver weight: […]
(§4) The relevant physiological parameters of liver weight, blood flow, and hepatocellularity for various species are listed below: […]

rat hepatocytes = experiment: Metabolic stability in rat hepatocytes; format: in vitro ADME; settings: predicted hepatic clearance, well stirred method
Experimental: as §1, §2, §3, §4

[2] = Rat pharmacokinetics, oral dosing; format: in vivo, Sprague-Dawley rats; settings: male, Sprague-Dawley, plasma; for half-life: read-out: Rat T1/2
[3] = Metabolic stability in human hepatocytes; format: in vitro ADME; settings: cryopreserved hepatocytes, 1 μM, 1×10^6 cells/mL, 0-240 min; for half-life at 1 μM: read-out: Human t1/2
Experimental: as §1, §2, §3, §4

human hepatocytes = experiment: Metabolic stability in human hepatocytes; format: in vitro ADME; settings: predicted hepatic clearance, well stirred method
Experimental: as §1, §2, §3, §4

CLint scaled at 1 μM [1] | half-life at 1 μM [1] | Rat Clhep predicted (rat hepatocytes) | AUC ([2]; oral dosing at 10 mg/kg) | Cmax ([2]; oral dosing at 10 mg/kg) | half-life ([2]; oral dosing at 10 mg/kg) | bioavailability ([2]; oral dosing at 10 mg/kg) | CLint scaled at 1 μM [3] | half-life at 1 μM [3] | Human Clhep predicted (human hepatocytes) | AUC ([2]; oral dosing at 3 mg/kg) | Cmax ([2]; oral dosing at 3 mg/kg) | half-life ([2]; oral dosing at 3 mg/kg) | bioavailability ([2]; oral dosing at 3 mg/kg) | SMILES
68.7 ± 3.5 mL/min/kg | 0.806 ± 0.041 h | 30.61 ± 3.29 mL/min/kg | 500 to 2500 ng·h/mL | 500 to 1000 ng/mL | 1.5 to 2.5 h | 25 to 50% | 14.2 ± 0.97 mL/min/kg | 2.83 ± 0.193 h | 8.42 ± 0.92 mL/min/kg |  |  |  |  | COc1cc(C(=O)O)cc2c1nc(CN1CCC(c3cccc(OCc4ccc(C#N)cc4F)n3)CC1)n2Cc1cncs1 [Compound 1, 2-((4-(6-((4-Cyano-2-fluorobenzyl)oxy)pyridin-2-yl)piperidin-1-yl)methyl)-4-methoxy-1-(thiazol-5-ylmethyl)-1H-benzo[d]imidazole-6-carboxylic acid]
27.4 ± 1.77 mL/min/kg | 2.02 ± 0.131 h | 18.31 ± 1.71 mL/min/kg |  |  |  |  | 6.18 ± 0.7 mL/min/kg | 0.0743 ± 0.0112 h | 4.76 ± 0.68 mL/min/kg | < 500 ng·h/mL | < 500 ng/mL | ≥ 2.5 h | < 25% | COc1cc(C(=O)O)cc2c1nc(CN1CCC(c3cccc(OCc4ccc(C#N)cc4F)n3)CC1)n2C[C@@H]1CCO1 [Compound 8, (S)-2-((4-(6-((4-Cyano-2-fluorobenzyl)oxy)pyridin-2-yl)piperidin-1-yl)methyl)-4-methoxy-1-(oxetan-2-ylmethyl)-1H-benzo[d]imidazole-6-carboxylic acid]
